These results are taken from paper PMC6722136, “Engineered Carbonic Anhydrase VI-Mimic Enzyme Switched the Structure and Affinities of Inhibitors” (Scientific Reports, 2019).

Read-outs that look alike come from different tables or passages of the source.

For data set [1] the following is noted: pKa of sulfonamide amino group of inhibitor; cited from earlier work.
Data set [2] concerns the target T1, CA VI (Homo sapiens, UniProt P23280).
T1 construct: made in house; host or cells: E. coli
The note with it: FTSA, pH 7.0, 37 °C; read-out: Kd_obs CA VI; cited from earlier work.

Data set [3] deals with T2, CA VI-mimic (CA II mutant A65T, N67Q, F130Y, V134Q, L203T) (Homo sapiens, UniProt P00918, A65T/F130Y/L203T/N67Q/V134Q).
T2 construct: encoding full length CA II (1-260), was used in site-directed mutagenesis; made in house; host or cells: E. coli BL21(DE3)
The data set is described as follows: Fluorescent thermal shift assay (FTSA), inhibitor binding to CA VI-mimic. The note with it: for difference between Kd_obs and Kd_intr for CA VI-mimic / Kd: FTSA; for difference between Kd_obs and Kd_intr for CA VI-mimic: 37 °C; for Kd: read-out: Kd_obs CA VI-mimic.

The target of the next data set is T3, CA II (Homo sapiens, UniProt P00918).
T3 construct: encoding full length CA II (1-260), was used in site-directed mutagenesis; made in house; host or cells: E. coli
The note with it: FTSA, pH 7.0, 37 °C; read-out: Kd_obs CA II; cited from earlier work.

In data set [4] the target is T1, CA VI. The data set is described as follows: Stopped-flow CO2 hydration assay (SFA), inhibition of CA VI. The data set is classed as biochemical.
Setting [5] is: SFA pH 7.5, measured at 23 °C, extrapolated to 37 °C by van't Hoff equation, read-out: Kd_obs CA VI by SFA (in parentheses).
Setting [6] is: SFA, pH 7.5, 23 °C, read-out: Kd_obs CA VI by SFA.

T1 sequence (P23280 18-308): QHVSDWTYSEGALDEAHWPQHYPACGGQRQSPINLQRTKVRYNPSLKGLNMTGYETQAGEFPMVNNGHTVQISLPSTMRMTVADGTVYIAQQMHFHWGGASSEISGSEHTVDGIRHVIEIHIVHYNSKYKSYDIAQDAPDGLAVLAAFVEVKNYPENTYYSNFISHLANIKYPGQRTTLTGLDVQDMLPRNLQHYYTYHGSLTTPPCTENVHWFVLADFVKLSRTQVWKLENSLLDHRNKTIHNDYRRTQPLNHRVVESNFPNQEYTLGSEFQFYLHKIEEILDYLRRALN

For the molecule `NS(=O)(=O)C(F)(F)F` [Inhibitor 1], the pKa_SA in data set [1] was 6.02.

As for `CCOc1ccc2nc(S(N)(=O)=O)sc2c1` [Inhibitor 2], the pKa_SA in data set [1] is listed as 7.82.

Turning to `CC(=O)/N=c1/sc(S(N)(=O)=O)nn1C` [Inhibitor 3], the pKa_SA in data set [1] is 6.86.

Consider `NS(=O)(=O)c1c(F)c(F)c(F)c(F)c1F` [Inhibitor 4], for which, in data set [1], the pKa_SA is listed as 8.12. Moreover, at CA VI [2], the Kd was 430 nM.

With `NS(=O)(=O)c1c(F)c(F)c(N2CCOCC2)c(F)c1F` [Inhibitor 5], the pKa_SA in data set [1] was 8.61. Further, the Kd at CA VI [2] was 1100 nM.

With `NS(=O)(=O)c1c(F)c(F)c(SCCO)c(F)c1F` [Inhibitor 6], the pKa_SA in data set [1] is 8.14.

As to `NNc1c(F)c(F)c(S(N)(=O)=O)c(F)c1F` [Inhibitor 7], the pKa_SA in data set [1] is given as 8.84. The Kd on CA VI [2] is 1000 nM.

For `NS(=O)(=O)c1c(F)c(F)c(NCc2ccccc2)c(F)c1F` [Inhibitor 8], in data set [1], the pKa_SA is reported as 8.47. Also, the Kd at CA VI [2] was 1200 nM.

For `NS(=O)(=O)c1c(F)c(F)c(Sc2ccccc2)c(F)c1F` [Inhibitor 9], the pKa_SA in data set [1] was 7.80. Moreover, the Kd on CA VI [2] was 200 nM.

In the case of `NS(=O)(=O)c1c(F)c(F)c(S(=O)(=O)CCO)c(F)c1F` [Inhibitor 10], the pKa_SA in data set [1] is 7.28. Also, the “difference between Kd_obs and Kd_intr for CA VI-mimic” value (from here on “difference between Kd_obs and Kd_intr”) in data set [3] is listed as “lower than 10 fold”.

With `NS(=O)(=O)c1c(F)c(F)c(S(=O)(=O)CCO)c(F)c1NCc1ccccc1` [Inhibitor 11], the pKa_SA in data set [1] is 7.85. Further, the Kd at CA VI [2] is 130 nM; in data set [3] (pH 7.0, 37 °C) it was 140 nM; on CA II, 83 nM.

As to `NS(=O)(=O)c1c(F)c(F)c(Sc2nc(-c3ccccc3)c(-c3ccccc3)[nH]2)c(F)c1F` [Inhibitor 12], in data set [1], the pKa_SA is 7.69. Besides, the Kd at CA VI [2] is 140 nM.

Turning to `NS(=O)(=O)c1c(F)c(F)c(Sc2nc3ccccc3s2)c(F)c1F` [Inhibitor 13], in data set [1], the pKa_SA is 7.83. For the same molecule, the Kd at CA VI [2] is 200 nM.

Consider `Cc1cc(C)nc(Sc2c(F)c(F)c(S(N)(=O)=O)c(F)c2F)n1` [Inhibitor 14], for which the pKa_SA in data set [1] is 8.02. In addition, the values for the Kd on CA VI [2], on CA VI [4] (setting [5]) and at CA VI [4] (setting [6]) were 1000 nM, 630 nM and 290 nM, respectively.

For `NS(=O)(=O)c1c(F)c(F)c(SCCc2ccccc2)c(F)c1F` [Inhibitor 15], the pKa_SA in data set [1] is recorded as 8.05. Besides, on CA VI [2], the Kd is 400 nM.

As for `NS(=O)(=O)c1ccc(SCCc2ccccc2)cc1` [Inhibitor 16], the pKa_SA in data set [1] is 10.1. On CA VI [2], the Kd is 1100 nM. Besides, the “difference between Kd_obs and Kd_intr” value in data set [3] was found to be 2500 fold.

`NS(=O)(=O)c1c(F)c(F)c(SCCc2ccccc2)c(F)c1N1CCOCC1` [Inhibitor 17]: the pKa_SA in data set [1] is 8.67. The Kd (at CA VI [2]; in data set [3]) was 100000 nM in each case.

As for `NS(=O)(=O)c1c(F)c(F)c(S(=O)(=O)c2ccccc2)c(F)c1F` [Inhibitor 18], the pKa_SA in data set [1] is given as 7.07. Besides, the Kd on CA VI [2] is 160 nM. Moreover, the “difference between Kd_obs and Kd_intr” value in data set [3] is “lower than 10 fold”.

Consider `NS(=O)(=O)c1c(F)c(F)c(SCCC(=O)O)c(F)c1F` [Inhibitor 19], for which the pKa_SA in data set [1] is listed as 7.97. Further, the Kd on CA VI [2] is 500 nM.

As to `CC(C)Nc1c(F)c(SCCc2ccccc2)c(F)c(F)c1S(N)(=O)=O` [Inhibitor 20], the pKa_SA in data set [1] was 8.67. Moreover, the Kd on CA VI [2] was 3300 nM; in data set [3] (pH 7.0, 37 °C), 2500 nM.

As for `COc1ccc(CNc2c(F)c(SCCc3ccccc3)c(F)c(F)c2S(N)(=O)=O)cc1OC` [Inhibitor 21], the pKa_SA in data set [1] was 8.67. Further, the Kd on CA VI [2] was 20000 nM; in data set [3] (pH 7.0, 37 °C), 3300 nM; at CA II it was 1800 nM.

Take `CCCSc1c(F)c(F)c(S(N)(=O)=O)c(F)c1F` [Inhibitor 22]: in data set [1], the pKa_SA is on record as 8.15. At CA VI [2], the Kd is 140 nM.

As for `CCCSc1ccc(S(N)(=O)=O)cc1` [Inhibitor 23], the pKa_SA in data set [1] is 10.2. In addition, the Kd at CA VI [2] is 830 nM; on CA VI [4] (setting [5]) it was 3900 nM; at CA VI [4] (setting [6]) it was 1800 nM. Besides, the “difference between Kd_obs and Kd_intr” value in data set [3] is 3200 fold.

As for `COc1ccc(CNc2c(F)c(SCCO)c(F)c(F)c2S(N)(=O)=O)cc1OC` [Inhibitor 24], the pKa_SA in data set [1] is given as 8.67. For the same molecule, the Kd at CA VI [2] was 11000 nM; in data set [3] (pH 7.0, 37 °C) it was 5000 nM; on CA II, 1300 nM.

Turning to `NS(=O)(=O)c1c(F)c(F)c(S(=O)(=O)CCO)c(NC2CCCCCCC2)c1F` [Inhibitor 25], in data set [1], the pKa_SA is 8.01.

In the case of `NS(=O)(=O)c1c(F)c(F)c(S(=O)(=O)CCc2ccccc2)c(F)c1F` [Inhibitor 26], the pKa_SA in data set [1] is 7.22. Moreover, at CA VI [2], the Kd was 140 nM. The “difference between Kd_obs and Kd_intr” value in data set [3] is on record as “lower than 10 fold”.

Consider `NS(=O)(=O)c1c(F)c(F)c(S(=O)(=O)CCc2ccccc2)c(NC2Cc3ccccc3C2)c1F` [Inhibitor 27], for which the pKa_SA in data set [1] was 7.87. The Kd is 2000 nM on CA VI [2]; 1000 nM in data set [3] (pH 7.0, 37 °C); 35 nM on CA II.

With `NS(=O)(=O)c1c(F)c(F)c(S(=O)(=O)CCc2ccccc2)c(NCc2ccccc2)c1F` [Inhibitor 29], the pKa_SA in data set [1] is on record as 7.87. The Kd is 110 nM at CA VI [2] and 200 nM in data set [3] (pH 7.0, 37 °C).

As for `NS(=O)(=O)c1ccc(SCCO)cc1` [Inhibitor 30], the pKa_SA in data set [1] was 9.96.

Turning to `NS(=O)(=O)c1c(F)c(F)c(S(=O)(=O)CCc2ccccc2)c(N[C@H](c2ccccc2)[C@H](O)c2ccccc2)c1F` [Inhibitor 31], the pKa_SA in data set [1] is listed as 7.87. Further, the Kd on CA VI [2] was 1000 nM; in data set [3] (pH 7.0, 37 °C), 2000 nM; on CA II it was 33 nM. The “weakening of intrinsic binding to CA VI-mimic relative to comparison compound” value in data set [3] (Kd_intr, 30 vs 23, 6 vs 22, 19 vs 22, 31 vs 26) is listed as 9 fold.

`NS(=O)(=O)c1c(F)c(F)c(SCc2ccccc2)c(F)c1F` [Inhibitor 32]: in data set [1], the pKa_SA is given as 8.53. The Kd on CA VI [2] was 330 nM. Moreover, in data set [3] (Kd_intr), the “stronger intrinsic binding to CA VI-mimic than inhibitor 9” value is 4 fold and the “stronger intrinsic binding to CA VI-mimic than inhibitor 15” value worked out at 2 fold.

As to `CCOC(=O)c1cnc(SCC(=O)c2ccc(Cl)c(S(N)(=O)=O)c2)[nH]c1=O` [Inhibitor 33], the pKa_SA in data set [1] was 8.90.

Take `NS(=O)(=O)c1ccc(C(=O)CSc2ccccc2)cc1Cl` [Inhibitor 34]: the pKa_SA in data set [1] was 8.70. Further, the Kd at CA VI [2] is 1100 nM; in data set [3] (pH 7.0, 37 °C) it was 330 nM; at CA II, 5.6 nM.

Consider `Cc1cc(C)nc(SCC(=O)c2cccc(S(N)(=O)=O)c2)n1` [Inhibitor 35], for which, in data set [1], the pKa_SA is 9.40.

On to `CCc1cnc(SCC(=O)c2ccc(S(N)(=O)=O)c(Cl)c2)nc1` [Inhibitor 36], for which the pKa_SA in data set [1] was 8.90.

On to `CCCc1cnc(SCC(=O)c2ccc(S(N)(=O)=O)c(Cl)c2)nc1` [Inhibitor 37], for which, in data set [1], the pKa_SA is 8.90.

In the case of `CCCc1cnc(SCC(=O)c2ccc(S(N)(=O)=O)cc2)nc1` [Inhibitor 38], the pKa_SA in data set [1] is 9.40.

With `Cc1cc(=O)[nH]c(SCC(=O)c2ccc(S(N)(=O)=O)c(Cl)c2)n1` [Inhibitor 39], the pKa_SA in data set [1] is listed as 8.90.

Turning to `NS(=O)(=O)c1cccc(C(=O)Cn2cnc3ccccc32)c1` [Inhibitor 40], in data set [1], the pKa_SA was 9.60. For the same molecule, the Kd at CA VI [2] was 6700 nM; in data set [3] (pH 7.0, 37 °C) it was 3300 nM; at CA II, 3600 nM.

For `NS(=O)(=O)c1ccc(C(=O)Cn2cnc3ccccc32)cc1Cl` [Inhibitor 41], in data set [1], the pKa_SA is on record as 8.30. Also, the Kd on CA VI [2] is 3300 nM.

For `NS(=O)(=O)c1ccc(C(=O)Cn2c(Cc3ccccc3)nc3ccccc32)cc1Cl` [Inhibitor 42], the pKa_SA in data set [1] is recorded as 8.70. Moreover, the Kd on CA VI [2] was 1400 nM; in data set [3] (pH 7.0, 37 °C), 330 nM.

Take `NS(=O)(=O)c1cccc(C(=O)Cn2c(Cc3ccccc3)nc3ccccc32)c1` [Inhibitor 43]: the pKa_SA in data set [1] was 9.60. Moreover, the Kd on CA VI [2] was 10000 nM; in data set [3] (pH 7.0, 37 °C), 3300 nM.

Turning to `NS(=O)(=O)c1cccc(C(=O)CSc2nc3ccccc3s2)c1` [Inhibitor 44], the pKa_SA in data set [1] is 9.60. For the same molecule, the Kd on CA VI [2] was 3300 nM; in data set [3] (pH 7.0, 37 °C), 500 nM; on CA II, 140 nM.

In the case of `C=CCNc1nc(-c2ccc(S(N)(=O)=O)c(Cl)c2)cs1` [Inhibitor 46], in data set [1], the pKa_SA is given as 9.40. In addition, the Kd at CA VI [2] is 17000 nM; in data set [3] (pH 7.0, 37 °C) it was 1100 nM; at CA II, 100 nM.
